Results: patent US20130189347A1, “DISEASE TREATMENT DRUG” (priority 2010, published 2013)

Key:
B16 melanoma cells [1] = assay: Early-stage cancer: rate of increase in tumor volume in B16 melanoma-transplanted mice; format: in vivo, ICR mice; details: CDDP 0.9 mM, 0.2 ml/mouse/dose via tail vein
Experimental: Five female, six-week-old IRC mice were assigned per group.
iron porphyrin complex/PLLA60wt%-F88 micelles (polymer capsule, 5 mM/0.7 wt %) were used.
As the sample drug (concentration) of the comparative example, CDDP (0.9 mM) was used.
(§1) B16 melanoma cells were used.
The amount of cancer cells injected was 1×10^5/mouse/0.05 ml, which is 1/10 that for end-stage cancer.
(§2) Anchoring of the cancer was confirmed on the 10th day after cancer cell transplantation. The mice were separated into five mice each for the required number of groups (three groups: two groups for the sample drugs and one control group). At the same time, the short diameter and the long diameter of the cancer cell volume in each mouse were measured every two days using calipers. The following equation was calculated:
(§3) [tumor volume]=½×[long diameter]×[short diameter]^2

B16 melanoma cells [2] = assay: End-stage cancer: rate of increase in tumor volume in B16 melanoma-transplanted mice; format: in vivo, C57BL/6CrSlC mice
Experimental: iron porphyrin complex/pH-sensitive liposomes (5 mM/36 mM) and iron porphyrin complex/DPPC-PEG liposomes (5 mM/36 mM) were used […]
as §1
as §2, with “groups (four” for “groups (three”, “groups: three” for “groups: two”
as §3

[3] = End-stage cancer experiment: weight fluctuation, death and side effects
Experimental: Five female, six-week-old C57BL/6CrSlC mice were assigned per group.
B16 melanoma dispersed in phosphate buffered saline (PBS) was injected into the foot pads (sole) of the mice (C57BL/6, female, six-weeks-old), and cancer was transplanted. The amount of cancer cells injected was 1×10^6/mouse/0.05 ml. The site of injection was within the limited area of the foot pad, in an environment where numerous fine blood vessels, such as capillaries, are present.
In addition, administration of the sample drugs (administered amount: 0.1 ml/mouse/dose) was started on the 13th day after cancer cell transplantation. Drug administration was conducted a total of four times, via tail vein every four days. The weight of each mouse was measured every two days.

[NH2][Pt]([NH2])([Cl])[Cl] [CDDP, Cisplatin]
suppression of increase in tumor volume (B16 melanoma cells [1]): about ten

CO[C@@]12[C@H](COC(N)=O)C3=C(C(=O)C(C)=C(N)C3=O)N1C[C@@H]1N[C@@H]12 [MMC, mitomycin]
observation of the transplanted foot (B16 melanoma cells [2]): necrosis occurred in the foot itself
course of tumor volume (B16 melanoma cells [2]; four days after administration of the drug): sudden increase in tumor volume
mice that died ([3]; during 20 days of observation, five mice per group, MMC 0.9 mM, 0.5 mM): two
weight increase and decrease (weight fluctuation) ([3]; end-stage cancer, weight measured every two days, FIG. 5): severe weight fluctuations
